Source: PubChem BioAssay AID2060621 (Molecular Pharmacology Branch, DTP, NCI, 2025)
pIC50: −log10 of the molar value. Values joined by “and” are separate entries in the source; they are usually repeats but may differ in a detail not shown here. Identical values can stand only once.

System: 324938-238-R-J1-PDC complex spheroids viability
Assay: Anticancer human tumor 324938-238-R-J1-PDC patient-derived bladder carcinoma cell line growth inhibition [CLK]
Details: for viability, T/C: stronger effect = lower value
From the text: A high-throughput screen of multi-cell type tumor spheroids was designed to identify active combinations of […] and targeted small molecules. Complex spheroids include a stromal component modeled by human endothelial cells (HUVEC) and fibroblasts modeled by human mesenchymal stem cells (MSCs). The concentration ranges selected for each drug and investigational agent were based upon clinically achievable concentrations if the clinical Cmax of the agent was known.
Compounds. The drugs and investigational agents: cirtuvivint (SM08502; NSC835563), CC-671 (NSC850746), vemurafenib (NSC761431), tapotoclax (NSC804041), sotorasib (NSC818433), adagrasib (NSC831453), MRTX-1133 (NSC836407), BAY2416964 (NSC825713), copanlisib (NSC816437), inavolisib (NSC800729), abemaciclib (NSC768073), osimertinib (NSC779217), entinostat (NSC756642), eltanexor (KPT-8602, NSC794443), venetoclax (NSC766270), ceralasertib (NSC777638), bortezomib (NSC756655), olaparib (NSC753686), talazoparib (NSC767125), alisertib (NSC759677), peposertib (NSC802822), gemcitabine (NSC613327), 5-fluorouracil (NSC19893), SN-38 (NSC673596), oxaliplatin (NSC266046), paclitaxel (NSC125973), and doxorubicin (NSC123127), were obtained from the National Cancer Institute (NCI) Developmental Therapeutics Program Chemical Repository. The FDA-approved anticancer drug set is available from the Developmental Therapeutics Program at https://dtp.cancer.gov/organization/dscb/obtaining/available plates.htm. […] The stock solutions were prepared in dimethyl sulfoxide (DMSO, Sigma-Aldrich, St. Louis, MO, cat. D2650), except for the platinum complexes which were prepared in saline (Quality Biological, Gaithersburg, MD, cat. 114-055-101), at 800-fold the tested concentration and stored at -70 degrees C prior to their use. All drugs and investigational agents were tested over a range starting from a high concentration at or near the clinical Cmax and decreasing in half-log increments. If the clinical Cmax for an agent had not been determined, the highest concentration tested was 10 microM.
Cell Culture. All cells were maintained in an incubator at 37 degrees C and 5% CO2 with 95% humidity. The PDC lines were cultured according to standard operating procedures established by the NCI PDMR. Briefly, all PDCs were thawed and cultured in Matrigel-coated flasks prepared with a working solution of 1X Ham's F-12 nutrient mix, without supplementation (Invitrogen, Waltham, MA, cat. 11765054), 100 U/mL penicillin-streptomycin (Invitrogen, cat. 15140122), and 2.5% Matrigel (Corning Inc., Corning, NY, cat. 354248) for the first three passages. The 947758-054-R-J2-PDC line was cultured in 6B/Colon 1A media, which includes advanced DMEM/F-12 (Thermo Fisher Scientific, cat. 12634028), 10 mM HEPES (Thermo Fisher Scientific, cat. 15630080), 1X GlutaMAX supplement (Thermo Fisher Scientific, cat. 35050061), 0.1 mg/mL primocin (InvivoGen, cat. ant-pm-2), 10% defined fetal bovine serum, heat inactivated (HyClone Laboratories Inc., cat. SH30070.03HI), 1.25 mM N-Acetyl-L-cysteine (Sigma-Aldrich, cat. A9165), 10 mM nicotinamide (Sigma-Aldrich, cat. N0636), 1X B-27 supplement (Thermo Fisher Scientific, cat. 17504044), 1X N-2 supplement (Thermo Fisher Scientific, cat. 17502048), and 10 microM Y-27632 dihydrochloride (Tocris Bioscience, cat. 1254). The 876862-298-R-J1-PDC was cultured in 6E media, which includes all 6B/Colon 1A media components plus 50% L-WRN conditioned media (ATCC, cat. CRL-3276), 50 ng/mL recombinant human EGF recombinant protein (hEGF; Thermo Fisher Scientific, cat. PHG0311), 10 ng/mL recombinant human fibroblast growth factor 10 (hGFG-10; PeproTech, cat. 100-26), 1 ng/mL recombinant human fibroblast growth factor 2 (hFGF-2; PeproTech, cat. 100-18B), and 1 µM prostaglandin E2 (PGE2; Tocris, cat. 2296). The 227483-062-R1-J1-PDC line was cultured in Panc media, containing all 6E components except hFGF-2, with the addition of 500 nM SB-431542 (Selleckchem, cat. S1067) and 10 nM gastrin (Tocris, cat. 3006). […]

[1] = curve of first compound, second compound 0.0316 µM
[2] = curve of first compound, second compound 0.1 µM
[3] = curve of first compound, second compound 0.316 µM
[4] = curve of first compound, second compound 1 µM
[5] = curve of first compound, second compound 3.16 µM
[6] = curve of first compound, second compound 10 µM
[7] = second compound 0.0316 µM, first compound 0.0316 µM
[8] = second compound 0.0316 µM, first compound 0.1 µM
[9] = second compound 0.0316 µM, first compound 0.316 µM
[10] = second compound 0.0316 µM, first compound 1 µM
[11] = second compound 0.0316 µM, first compound 3.16 µM
[12] = second compound 0.0316 µM, first compound 10 µM
[13] = second compound 0.1 µM, first compound 0.0316 µM
[14] = second compound 0.1 µM, first compound 0.1 µM
[15] = second compound 0.1 µM, first compound 0.316 µM
[16] = second compound 0.1 µM, first compound 1 µM
[17] = second compound 0.1 µM, first compound 3.16 µM
[18] = second compound 0.1 µM, first compound 10 µM
[19] = second compound 0.316 µM, first compound 0.0316 µM
[20] = second compound 0.316 µM, first compound 0.1 µM
[21] = second compound 0.316 µM, first compound 0.316 µM
[22] = second compound 0.316 µM, first compound 1 µM
[23] = second compound 0.316 µM, first compound 3.16 µM
[24] = second compound 0.316 µM, first compound 10 µM
[25] = second compound 1 µM, first compound 0.0316 µM
[26] = second compound 1 µM, first compound 0.1 µM
[27] = second compound 1 µM, first compound 0.316 µM
[28] = second compound 1 µM, first compound 1 µM
[29] = second compound 1 µM, first compound 3.16 µM
[30] = second compound 1 µM, first compound 10 µM
[31] = second compound 3.16 µM, first compound 0.0316 µM
[32] = second compound 3.16 µM, first compound 0.1 µM
[33] = second compound 3.16 µM, first compound 0.316 µM
[34] = second compound 3.16 µM, first compound 1 µM
[35] = second compound 3.16 µM, first compound 3.16 µM
[36] = second compound 3.16 µM, first compound 10 µM
[37] = second compound 10 µM, first compound 0.0316 µM
[38] = second compound 10 µM, first compound 0.1 µM
[39] = second compound 10 µM, first compound 0.316 µM
[40] = second compound 10 µM, first compound 1 µM
[41] = second compound 10 µM, first compound 3.16 µM
[42] = second compound 10 µM, first compound 10 µM
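Note: viability read after seven days of drug exposure.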
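Throughout, for viability, T/C: 100% = DMSO vehicle control wells.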

O=c1[nH]cc(F)c(=O)[nH]1 + CNC(=O)c1ccc(Nc2nc(OC3CCCC3)c3c(-c4ccc5nc(C)oc5c4)c[nH]c3n2)c(OC)c1
pIC50 [1]: 6.59 | pIC50 [2]: > 7.50 | pIC50 [3]: > 7.50 | pIC50 [4]: > 7.50 | pIC50 [5]: > 7.50 | pIC50 [6]: > 7.50 | viability, T/C [7]: 80.6% | viability, T/C [8]: 77.5% | viability, T/C [9]: 43.5% | viability, T/C [10]: 28.6% | viability, T/C [11]: 22.2% | viability, T/C [12]: 25.1% | viability, T/C [13]: 25.2% | viability, T/C [14]: 24% | viability, T/C [15]: 23.8% | viability, T/C [16]: 19.8% | viability, T/C [17]: 15.7% | viability, T/C [18]: 17.5% | viability, T/C [19]: 19.6% | viability, T/C [20]: 18.5% | viability, T/C [21]: 16.2% | viability, T/C [22]: 14.7% | viability, T/C [23]: 14.3% | viability, T/C [24]: 14.7% | viability, T/C [25]: 16.1% | viability, T/C [26]: 15.2% | viability, T/C [27]: 15.4% | viability, T/C [28]: 13.8% | viability, T/C [29]: 10.5% | viability, T/C [30]: 9.31% | viability, T/C [31]: 15.3% | viability, T/C [32]: 14.8% | viability, T/C [33]: 14% | viability, T/C [34]: 12.7% | viability, T/C [35]: 11.2% | viability, T/C [36]: 11.1% | viability, T/C [37]: 17.8% | viability, T/C [38]: 15.3% | viability, T/C [39]: 15.1% | viability, T/C [40]: 16.6% | viability, T/C [41]: 12.6% | viability, T/C [42]: 10.3%

CC1(C)CCC(CN2CCN(c3ccc(C(=O)NS(=O)(=O)c4ccc(NCC5CCOCC5)c([N+](=O)[O-])c4)c(Oc4cnc5[nH]ccc5c4)c3)CC2)=C(c2ccc(Cl)cc2)C1 + CNC(=O)c1ccc(Nc2nc(OC3CCCC3)c3c(-c4ccc5nc(C)oc5c4)c[nH]c3n2)c(OC)c1
pIC50 [1]: 5.34 | pIC50 [2]: > 7.50 | pIC50 [3]: > 7.50 | pIC50 [4]: > 7.50 | pIC50 [5]: > 7.50 | pIC50 [6]: > 7.50 | viability, T/C [7]: 76.8% | viability, T/C [8]: 78.4% | viability, T/C [9]: 84.1% | viability, T/C [10]: 83.6% | viability, T/C [11]: 69.4% | viability, T/C [12]: 6.56% | viability, T/C [13]: 29.6% | viability, T/C [14]: 25.7% | viability, T/C [15]: 26.6% | viability, T/C [16]: 19.6% | viability, T/C [17]: 19.8% | viability, T/C [18]: 4.63% | viability, T/C [19]: 18.9% | viability, T/C [20]: 14.3% | viability, T/C [21]: 15.2% | viability, T/C [22]: 13.7% | viability, T/C [23]: 14.6% | viability, T/C [24]: 4.21% | viability, T/C [25]: 14.7% | viability, T/C [26]: 21.3% | viability, T/C [27]: 14.7% | viability, T/C [28]: 14.5% | viability, T/C [29]: 13.2% | viability, T/C [30]: 7.92% | viability, T/C [31]: 17.9% | viability, T/C [32]: 14.5% | viability, T/C [33]: 14% | viability, T/C [34]: 14.8% | viability, T/C [35]: 13.6% | viability, T/C [36]: 8.16% | viability, T/C [37]: 14.8% | viability, T/C [38]: 15.1% | viability, T/C [39]: 15.8% | viability, T/C [40]: 14.7% | viability, T/C [41]: 14% | viability, T/C [42]: 7.47%

CC1COCCN1c1cc(C2(S(C)(=N)=O)CC2)nc(-c2ccnc3[nH]ccc23)n1 (stereo not drawn)
viability, T/C (compound 0.0316 µM): 85.2% and 72.7% | viability, T/C (compound 0.1 µM): 86.7% and 79% | viability, T/C (compound 0.316 µM): 73.1% and 77.7% | viability, T/C (compound 1 µM): 68.5% and 59.5% | viability, T/C (compound 3.16 µM): 33.5% and 27.7% | viability, T/C (compound 10 µM): 14.9% and 13% | pIC50 (curve of compound): 5.75 and 5.84

COc1c(OCCCN2CCOCC2)ccc2c3n(c(=NC(=O)c4cnc(N)nc4)nc12)CCN3 + CN1CCN(c2cc(C(=O)Nc3cc4cc(-c5cnn(C)c5)ccc4cn3)ccn2)CC1
pIC50 [1]: 7.76 | pIC50 [2]: 8.27 | pIC50 [3]: > 8.50 | pIC50 [4]: > 8.50 | pIC50 [5]: > 8.50 | pIC50 [6]: > 8.50 | viability, T/C (second compound 0.0316 µM, first compound 0.00316 µM): 76.1% | viability, T/C (second compound 0.0316 µM, first compound 0.01 µM): 59.6% | viability, T/C [7]: 39.2% | viability, T/C [8]: 21.2% | viability, T/C [9]: 7.23% | viability, T/C [10]: 1.32% | viability, T/C (second compound 0.1 µM, first compound 0.00316 µM): 55.8% | viability, T/C (second compound 0.1 µM, first compound 0.01 µM): 43.5% | viability, T/C [13]: 29.5% | viability, T/C [14]: 17.6% | viability, T/C [15]: 6.5% | viability, T/C [16]: 1.24% | viability, T/C (second compound 0.316 µM, first compound 0.00316 µM): 23.9% | viability, T/C (second compound 0.316 µM, first compound 0.01 µM): 19.4% | viability, T/C [19]: 15.1% | viability, T/C [20]: 8.98% | viability, T/C [21]: 2.42% | viability, T/C [22]: 0.55% | viability, T/C (second compound 1 µM, first compound 0.00316 µM): 2.31% | viability, T/C (second compound 1 µM, first compound 0.01 µM): 2.19% | viability, T/C [25]: 1.42% | viability, T/C [26]: 0.41% | viability, T/C [27]: 0.11% | viability, T/C [28]: 0.13% | viability, T/C (second compound 3.16 µM, first compound 0.00316 µM): 0.09% | viability, T/C (second compound 3.16 µM, first compound 0.01 µM): 0.16% | viability, T/C [31]: 0.14% | viability, T/C [32]: 0.07% | viability, T/C [33]: 0.08% | viability, T/C [34]: 0.13% | viability, T/C (second compound 10 µM, first compound 0.00316 µM): 0.05% | viability, T/C (second compound 10 µM, first compound 0.01 µM): 0.24% | viability, T/C [37]: 0.16% | viability, T/C [38]: 0.09% | viability, T/C [39]: 0.29% | viability, T/C [40]: 0.16%
